Source: patent US6531604B2, “Benzothiepine derivatives, their production and use” (Takeda Chemical Industries, Ltd., priority 1998, dated 2003)

These compounds were tested on interstitial cells prepared from the femur bone marrow of a normal rat (assay: Osteogenesis promoting effect: alkaline phosphatase activity in cultured rat bone marrow interstitial cells). Conditions: test compound 10^−5 M, added from 2nd day of culture, cultured additional 5 days; mean ± S.E. (n = 4); control 0.150 ± 0.009; ** p < 0.01 vs control.
Format: cell-based
Experimental: Osteogenesis promoting effect:
Using the interstitial cells prepared from the femur bone marrow of a normal rat, an alkaline phosphatase activity was measured as an index of osteogenesis. Briefly, according to the method of Maniatopoulos et al. [Cell Tissue Research, volume 254, P.317 (1988)], the interstitial cells were prepared from the femur bone of a Sprague-Dawley male rat, 7 weeks of age, and cultured in an α-MEM (minimum essential medium) solution containing dexamethasone (10^−7M) and β-glycerophosphoric acid (10^−2M) in order to generate calcified bony tissue. One week later, the confluent primary cells were treated with 0.25% trypsin-0.2% EDTA solution, recovered, and subcultured on a culture plate at a cell density of […], (culture day 0). From the 2nd day of the culture, a test compound (10^−5 M) was added to the above culture solution, and cultured for additional 5 days. The cells were washed with a phosphate buffer, and after addition of 0.2% Nonidet P-40, they were homogenized and centrifuged at 3,000 rpm for 10 minutes. The supernatant was measured for an alkaline phosphatase activity according to the method of Lowry et al. [Journal of Biological Chemistry, volume 207, P.19 (1954)]. […] Statistical analysis was performed by means of the Student's t-test.

SMILES | Alkaline phosphatase activity (A405)
C[C@@H]1S[C@@H](C(=O)Nc2ccc(Cn3oc(=O)[nH]c3=O)cc2)Cc2cc3c(cc2C1=O)OCO3 [Example no. 11, (2R,4S)-N-[4-(3,5-Dioxo-1,2,4-oxadiazolidin-2-ylmethyl)phenyl]-1,2,4,5-tetrahydro-7,8-methylenedioxy-4-methyl-5-oxo-3-benzothiepine-2-carboxamide] | 0.399 ± 0.069** A405
C[C@@H]1S[C@@H](C(=O)Nc2ccc(CN3CCOCC3)cc2)Cc2cc3c(cc2C1=O)OCO3 [Example no. 4, (2R,4S)-N-[4-(4-Morpholinylmethyl)phenyl]-1,2,4,5-tetrahydro-7,8-methylenedioxy-4-methyl-5-oxo-3-benzothiepine-2-carboxamide] | 0.394 ± 0.036** A405
C[C@@H]1S[C@@H](C(=O)Nc2ccc(CC3OC(=O)NC3=O)cc2)Cc2cc3c(cc2C1=O)OCO3 (stereo partly drawn) [Example no. 10, (2R,4S)-N-[4-(2,4-Dioxo-oxazolidin-5-yl-methyl)phenyl]-1,2,4,5-tetrahydro-7,8-methylenedioxy-4-methyl-5-oxo-3-benzothiepine-2-carboxamide] | 0.535 ± 0.069** A405
C[C@@H]1S[C@@H](C(=O)Nc2ccc(CC3SC(=O)NC3=O)cc2)Cc2cc3c(cc2C1=O)OCO3 (stereo partly drawn) [Example no. 1, (2R,4S)-N-[4-(2,4-Dioxothiazolidin-5-yl-methyl)phenyl]-1,2,4,5-tetrahydro-7,8-methylenedioxy-4-methyl-5-oxo-3-benzothiepine-2-carboxamide] | 0.489 ± 0.050** A405
